The subject of the assay is CD2F1 mice, L1210 leukemia ip, survival T/C. Briefly: NCI In Vivo Anticancer Drug Screen. Data for tumor model L1210 Leukemia (intraperitoneal) in CD2F1 (CDF1) mice. The note with it: endpoint: mean survival time, higher = longer survival. A digest of the protocol:
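Each value reflects a quotient of treated over vehicle control outcomes in mice with a transplanted tumor.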

The mark [1] stands for this setting: dose: 100.0 mg/kg/injection, schedule: Q01DX009 (ip), vehicle: saline with Tween-80.
Where [2] appears, read: dose: 200.0 mg/kg/injection, schedule: Q01DX009 (ip), vehicle: saline with Tween-80.
Setting [3] is: dose: 400.0 mg/kg/injection, schedule: Q01DX009 (ip), vehicle: saline with Tween-80.
The mark [4] stands for this setting: dose: 25.0 mg/kg/injection, schedule: Q01DX009 (ip), vehicle: saline with Tween-80.
Where [5] appears, read: dose: 50.0 mg/kg/injection, schedule: Q01DX009 (ip), vehicle: saline with Tween-80.
Where [6] appears, read: dose: 100.0 mg/kg/injection, schedule: Q04DX003 (ip), vehicle: saline with Tween-80.
[7] abbreviates: dose: 25.0 mg/kg/injection, schedule: Q01DX009 (ip), vehicle: saline.
The mark [8] stands for this setting: dose: 50.0 mg/kg/injection, schedule: Q01DX009 (ip), vehicle: saline.

Where “and” joins values, the source holds several entries; their conditions need not be identical. Equal values may be shown once. Toxic doses and inconclusive results are not listed.

For the compound `CC1CCC2CON(C#N)C2C1` (centres undefined), the T/C is, setting by setting: (dose: 100.0 mg/kg/injection, schedule: Q04DX003 (ip), vehicle: Klucel (hydroxypropylcellulose) (HPC)) 109 % of control; (dose: 200.0 mg/kg/injection, schedule: Q04DX003 (ip), vehicle: Klucel (hydroxypropylcellulose) (HPC)) 101 % of control; (dose: 400.0 mg/kg/injection, schedule: Q04DX003 (ip), vehicle: Klucel (hydroxypropylcellulose) (HPC)) 101 % of control.

Regarding `Nc1nn[nH]n1`, the T/C was 95 % of control under setting [1], 90 % of control under setting [2] and 94 % of control under setting [3].

`ClC1=C(Cl)C2(Cl)C=CC1(Cl)C2(Cl)Cl`: the T/C under setting [4] was 97 % of control, the T/C under setting [5] was 90 % of control and the T/C under setting [6] is 105 % of control.

In the case of `CCN(C(=O)Nc1cc([N+](=O)[O-])ccc1C)c1cc(C)ccc1OC`, the T/C by setting is: under setting [1], 88 % of control; under setting [2], 94 % of control; under setting [3], 94 % of control.

Regarding `O=C(NNC(=S)Nc1cccc(C(F)(F)F)c1)c1ccncc1`, the T/C (dose: 12.5 mg/kg/injection, schedule: Q01DX009 (ip), vehicle: saline with Tween-80) was 91 % of control; the T/C under setting [4] was 93 % of control; the T/C under setting [5] was 88 % of control; the T/C (dose: 100.0 mg/kg/injection, schedule: Q04DX002 (ip), vehicle: saline with Tween-80) is 98 % of control; the T/C (dose: 200.0 mg/kg/injection, schedule: Q04DX002 (ip), vehicle: saline with Tween-80) was 105 % of control.

On to `CC1(C(F)(F)F)CC(=O)NN1` (centres undefined), for which the T/C by setting is: (dose: 12.5 mg/kg/injection, schedule: Q01DX009 (ip), vehicle: saline) 95 % of control; under setting [7], 97 % of control; under setting [8], 97 % of control; under setting [6], 97 % of control.

In the case of `COc1ncnc2c1cnn2C1OC(CO)C(O)C1O` (centres undefined), the T/C is 94 % of control (dose: 12.5 mg/kg/injection, schedule: Q01DX005 (ip), vehicle: water); 96 % of control (dose: 25.0 mg/kg/injection, schedule: Q01DX005 (ip), vehicle: water); 96 % of control (dose: 50.0 mg/kg/injection, schedule: Q01DX005 (ip), vehicle: water); 104 % of control (dose: 100.0 mg/kg/injection, schedule: Q01DX005 (ip), vehicle: water); 107 % of control (dose: 200.0 mg/kg/injection, schedule: Q01DX005 (ip), vehicle: water).

`COc1ccc(NC(=O)CC(C)C(=O)O)cc1` (centres undefined): the T/C under setting [6] was 101 % of control; the T/C (dose: 200.0 mg/kg/injection, schedule: Q04DX003 (ip), vehicle: saline with Tween-80) was 100 % of control; the T/C (dose: 400.0 mg/kg/injection, schedule: Q04DX003 (ip), vehicle: saline with Tween-80) is 101 % of control.

As for `C/C(=N\N=C(N)N)c1ccc(NC(=O)Nc2ccc(/C(C)=N/N=C(N)N)cc2)cc1`, the T/C was 155 % of control (dose: 25.0 mg/kg/injection, schedule: Q01DX005 (ip), vehicle: saline); 155 % of control under setting [7]; 101 % of control (dose: 25.0 mg/kg/injection, schedule: Q01DX009 (sc), vehicle: saline); 185 % of control (dose: 50.0 mg/kg/injection, schedule: Q01DX005 (ip), vehicle: saline); 152 % of control (dose: 50.0 mg/kg/injection, schedule: Q01DX007 (ip), vehicle: saline); 154 % of control and 188 % of control under setting [8]. The T/C (dose: 50.0 mg/kg/injection, schedule: Q01DX009 (sc), vehicle: saline) is 107 % of control; the T/C (dose: 100.0 mg/kg/injection, schedule: Q01DX001 (sc), vehicle: saline) is 101 % of control; the T/C (dose: 100.0 mg/kg/injection, schedule: Q01DX005 (ip), vehicle: saline) is 223 % of control; the T/C (dose: 100.0 mg/kg/injection, schedule: Q01DX007 (ip), vehicle: saline) was 225 % of control; the T/C (dose: 100.0 mg/kg/injection, schedule: Q01DX009 (ip), vehicle: saline) is 250 % of control and 314 % of control; the T/C (dose: 100.0 mg/kg/injection, schedule: Q01DX009 (oral), vehicle: saline) was 98 % of control. Also, the T/C is, setting by setting: (dose: 100.0 mg/kg/injection, schedule: Q01DX009 (sc), vehicle: saline) 102 % of control; (dose: 100.0 mg/kg/injection, schedule: Q03DX003 (ip), vehicle: saline) 154 % of control; (dose: 100.0 mg/kg/injection, schedule: Q04DX003 (ip), vehicle: saline) 163 % of control; (dose: 100.0 mg/kg/injection, schedule: Q## X024 (ip), vehicle: saline) 160 % of control; (dose: 200.0 mg/kg/injection, schedule: Q01DX001 (ip), vehicle: saline) 155 % of control; (dose: 200.0 mg/kg/injection, schedule: Q01DX001 (oral), vehicle: saline) 103 % of control. Also, the T/C is, setting by setting: (dose: 200.0 mg/kg/injection, schedule: Q01DX001 (sc), vehicle: saline) 102 % of control; (dose: 200.0 mg/kg/injection, schedule: Q01DX007 (ip), vehicle: saline) 90 % of control; (dose: 200.0 mg/kg/injection, schedule: Q01DX009 (ip), vehicle: saline) 217 % of control; (dose: 200.0 mg/kg/injection, schedule: Q01DX009 (oral), vehicle: saline) 88 % of control; (dose: 200.0 mg/kg/injection, schedule: Q01DX009 (sc), vehicle: saline) 119 % of control; (dose: 200.0 mg/kg/injection, schedule: Q03DX003 (ip), vehicle: saline) 186 % of control. Also, the T/C (dose: 200.0 mg/kg/injection, schedule: Q03HX008 (ip), vehicle: saline) is 152 % of control; the T/C (dose: 200.0 mg/kg/injection, schedule: Q04DX003 (ip), vehicle: saline) is 156 % of control and 200 % of control; the T/C (dose: 200.0 mg/kg/injection, schedule: Q08DX002 (ip), vehicle: saline) was 172 % of control; the T/C (dose: 200.0 mg/kg/injection, schedule: Q## X016 (ip), vehicle: saline) is 198 % of control; the T/C (dose: 200.0 mg/kg/injection, schedule: Q## X024 (ip), vehicle: saline) is 230 % of control; the T/C (dose: 400.0 mg/kg/injection, schedule: Q01DX001 (ip), vehicle: saline) is 180 % of control. For the same compound, the T/C runs as follows: (dose: 400.0 mg/kg/injection, schedule: Q01DX001 (oral), vehicle: saline) 101 % of control; (dose: 400.0 mg/kg/injection, schedule: Q01DX001 (sc), vehicle: saline) 105 % of control; (dose: 400.0 mg/kg/injection, schedule: Q01DX009 (oral), vehicle: saline) 116 % of control; (dose: 400.0 mg/kg/injection, schedule: Q03HX008 (ip), vehicle: saline) 179 % of control; (dose: 400.0 mg/kg/injection, schedule: Q04DX003 (ip), vehicle: saline) 325 % of control; (dose: 400.0 mg/kg/injection, schedule: Q08DX002 (ip), vehicle: saline) 225 % of control. Also, the T/C (dose: 400.0 mg/kg/injection, schedule: Q## X016 (ip), vehicle: saline) was 284 % of control; the T/C (dose: 400.0 mg/kg/injection, schedule: Q## X024 (ip), vehicle: saline) was 374 % of control; the T/C (dose: 800.0 mg/kg/injection, schedule: Q01DX001 (ip), vehicle: saline) is 206 % of control; the T/C (dose: 800.0 mg/kg/injection, schedule: Q01DX001 (oral), vehicle: saline) is 102 % of control; the T/C (dose: 800.0 mg/kg/injection, schedule: Q01DX001 (sc), vehicle: saline) was 105 % of control; the T/C (dose: 800.0 mg/kg/injection, schedule: Q01DX009 (oral), vehicle: saline) was 98 % of control. In addition, the T/C was 294 % of control (dose: 800.0 mg/kg/injection, schedule: Q04DX003 (ip), vehicle: saline); 217 % of control (dose: 800.0 mg/kg/injection, schedule: Q08DX002 (ip), vehicle: saline); 235 % of control (dose: 800.0 mg/kg/injection, schedule: Q## X016 (ip), vehicle: saline); 102 % of control (dose: 1600.0 mg/kg/injection, schedule: Q01DX001 (oral), vehicle: saline).

For `Nc1cc(S(=O)(=O)c2ccc(N3CCCCC3)c(N)c2)ccc1N1CCCCC1`, the T/C is 110 % of control under setting [1] and 113 % of control under setting [2].

As to `CC[N+](C)(CC)CCOC(=O)c1ccccc1Oc1ccc(C)cc1`, the T/C runs as follows: under setting [7], 107 % of control; under setting [8], 107 % of control.

(Values after PubChem BioAssay AID256 (DTP/NCI, 2004).)
